From the NIST ThermoML archive (doi:10.1021/je400790d)
± gives the expanded uncertainty stated by the source.

Experiment: mn = molality of the nth substance listed, in mol/kg
Conditions: 100 kPa, Liquid, Vibrating tube method

CCCCCCCC[N+]1(C)CCOCC1.O=S(=O)([N-]S(=O)(=O)C(F)(F)F)C(F)(F)F + CC#N
mass density [kg/m3]
Conditions | m1 = 0.00838 | m1 = 0.01564 | m1 = 0.02472 | m1 = 0.03714 | m1 = 0.05106 | m1 = 0.06653 | m1 = 0.08502 | m1 = 0.1052 | m1 = 0.1294 | m1 = 0.1609
298.15 K | 777.974 ± 0.39 | 779.195 ± 0.39 | 780.71 ± 0.39 | 782.766 ± 0.38 | 785.044 ± 0.38 | 787.549 ± 0.38 | 790.507 ± 0.37 | 793.696 ± 0.37 | 797.448 ± 0.36 | 802.25 ± 0.36
303.15 K | 772.547 ± 0.39 | 773.77 ± 0.39 | 775.289 ± 0.39 | 777.348 ± 0.39 | 779.63 ± 0.38 | 782.14 ± 0.38 | 785.101 ± 0.38 | 788.29 ± 0.37 | 792.039 ± 0.36 | 796.85 ± 0.36
308.15 K | 767.094 ± 0.4 | 768.318 ± 0.39 | 769.839 ± 0.39 | 771.899 ± 0.39 | 774.185 ± 0.38 | 776.698 ± 0.38 | 779.664 ± 0.38 | 782.856 ± 0.37 | 786.61 ± 0.37 | 791.423 ± 0.36
313.15 K | 761.606 ± 0.4 | 762.833 ± 0.39 | 764.357 ± 0.39 | 766.421 ± 0.39 | 768.71 ± 0.38 | 771.222 ± 0.38 | 774.189 ± 0.38 | 777.385 ± 0.37 | 781.149 ± 0.37 | 785.97 ± 0.36
318.15 K | 756.08 ± 0.4 | 757.311 ± 0.4 | 758.838 ± 0.39 | 760.906 ± 0.39 | 763.198 ± 0.39 | 765.716 ± 0.38 | 768.695 ± 0.38 | 771.901 ± 0.37 | 775.667 ± 0.37 | 780.493 ± 0.37

CCCC[N+]1(C)CCOCC1.O=S(=O)([N-]S(=O)(=O)C(F)(F)F)C(F)(F)F + CC#N
mass density [kg/m3]
Conditions | m1 = 0.00879 | m1 = 0.01653 | m1 = 0.02761 | m1 = 0.03802 | m1 = 0.05226 | m1 = 0.06737 | m1 = 0.08642 | m1 = 0.1101 | m1 = 0.13 | m1 = 0.1623
298.15 K | 778.005 ± 0.38 | 779.272 ± 0.38 | 781.074 ± 0.38 | 782.759 ± 0.38 | 785.036 ± 0.38 | 787.436 ± 0.37 | 790.427 ± 0.37 | 794.115 ± 0.36 | 797.144 ± 0.36 | 802.019 ± 0.36
303.15 K | 772.575 ± 0.39 | 773.845 ± 0.38 | 775.647 ± 0.38 | 777.331 ± 0.38 | 779.607 ± 0.38 | 781.999 ± 0.37 | 784.994 ± 0.37 | 788.679 ± 0.37 | 791.717 ± 0.36 | 796.577 ± 0.36
308.15 K | 767.12 ± 0.39 | 768.39 ± 0.38 | 770.192 ± 0.38 | 771.873 ± 0.38 | 774.153 ± 0.38 | 776.549 ± 0.37 | 779.543 ± 0.37 | 783.226 ± 0.37 | 786.253 ± 0.36 | 791.135 ± 0.36
313.15 K | 761.631 ± 0.39 | 762.901 ± 0.39 | 764.703 ± 0.38 | 766.385 ± 0.38 | 768.667 ± 0.38 | 771.064 ± 0.37 | 774.057 ± 0.37 | 777.74 ± 0.37 | 780.771 ± 0.36 | 785.644 ± 0.36
318.15 K | 756.103 ± 0.39 | 757.375 ± 0.39 | 759.178 ± 0.38 | 760.862 ± 0.38 | 763.147 ± 0.38 | 765.551 ± 0.38 | 768.552 ± 0.37 | 772.235 ± 0.37 | 775.257 ± 0.36 | 780.136 ± 0.36

CC[N+]1(C)CCOCC1.O=S(=O)([N-]S(=O)(=O)C(F)(F)F)C(F)(F)F + CC#N
mass density [kg/m3]
Conditions | m1 = 0.009434 | m1 = 0.01654 | m1 = 0.02652 | m1 = 0.03788 | m1 = 0.05256 | m1 = 0.06858 | m1 = 0.08695 | m1 = 0.1078 | m1 = 0.1316 | m1 = 0.1634
298.15 K | 778.145 ± 0.39 | 779.333 ± 0.39 | 780.985 ± 0.39 | 782.85 ± 0.38 | 785.24 ± 0.38 | 787.81 ± 0.38 | 790.74 ± 0.37 | 794.037 ± 0.37 | 797.714 ± 0.36 | 802.54 ± 0.36
303.15 K | 772.716 ± 0.39 | 773.905 ± 0.39 | 775.56 ± 0.39 | 777.429 ± 0.38 | 779.815 ± 0.38 | 782.385 ± 0.38 | 785.318 ± 0.37 | 788.611 ± 0.37 | 792.286 ± 0.36 | 797.108 ± 0.36
308.15 K | 767.263 ± 0.39 | 768.452 ± 0.39 | 770.11 ± 0.39 | 771.974 ± 0.38 | 774.365 ± 0.38 | 776.944 ± 0.38 | 779.877 ± 0.37 | 783.146 ± 0.37 | 786.836 ± 0.36 | 791.661 ± 0.36
313.15 K | 761.774 ± 0.4 | 762.964 ± 0.39 | 764.619 ± 0.39 | 766.483 ± 0.38 | 768.876 ± 0.38 | 771.442 ± 0.38 | 774.373 ± 0.38 | 777.657 ± 0.37 | 781.334 ± 0.36 | 786.155 ± 0.36
318.15 K | 756.247 ± 0.39 | 757.44 ± 0.39 | 759.113 ± 0.39 | 760.976 ± 0.39 | 763.372 ± 0.38 | 765.945 ± 0.38 | 768.855 ± 0.38 | 772.158 ± 0.37 | 775.832 ± 0.36 | 780.648 ± 0.36
